Data on 1 molecule can be found in patent US20260306525A1, “COMBINATION THERAPY GLUCOCORTICOIDS AND GINSENOSIDE” (FYTAGORAS B.V., priority 2023, published 2026).

The target in the test is T1, GR (Homo sapiens, UniProt P04150).
T1 sequence (P04150 1-777): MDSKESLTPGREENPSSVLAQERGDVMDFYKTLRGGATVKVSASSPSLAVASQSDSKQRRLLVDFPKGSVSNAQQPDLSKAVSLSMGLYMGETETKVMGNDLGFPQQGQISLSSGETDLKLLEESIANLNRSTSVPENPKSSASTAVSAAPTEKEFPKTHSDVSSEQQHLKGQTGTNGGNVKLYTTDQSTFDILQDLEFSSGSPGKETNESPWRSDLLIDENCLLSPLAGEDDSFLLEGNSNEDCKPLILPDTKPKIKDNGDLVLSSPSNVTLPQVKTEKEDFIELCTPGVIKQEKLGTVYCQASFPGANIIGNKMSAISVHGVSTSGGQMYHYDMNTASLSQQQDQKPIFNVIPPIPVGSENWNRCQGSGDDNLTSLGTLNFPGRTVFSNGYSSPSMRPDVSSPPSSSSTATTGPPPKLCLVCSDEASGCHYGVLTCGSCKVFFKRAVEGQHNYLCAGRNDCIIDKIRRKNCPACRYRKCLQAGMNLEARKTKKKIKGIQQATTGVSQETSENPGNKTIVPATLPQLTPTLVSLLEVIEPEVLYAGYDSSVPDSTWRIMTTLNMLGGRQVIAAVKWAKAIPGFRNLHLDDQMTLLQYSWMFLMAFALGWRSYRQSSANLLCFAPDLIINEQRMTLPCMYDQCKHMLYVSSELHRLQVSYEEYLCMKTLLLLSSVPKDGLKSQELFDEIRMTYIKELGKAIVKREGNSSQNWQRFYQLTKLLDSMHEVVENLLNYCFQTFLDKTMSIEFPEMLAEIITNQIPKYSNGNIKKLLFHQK
The experiment in a line: PolarScreen Glucocorticoid Receptor competitive binding assay. The arrangement: followed by GR Full Length (partially purified receptor in storage buffer); purchased ThermoFisher Scientific. Here is the method: To determine the relative binding affinities of the different compounds for the human GR in vitro, the PolarScreen™ Glucocorticoid Receptor Competitor Assay Kit (ThermoFisher Scientific, Waltham, MA, USA) was used following the manufacturer's instructions. Briefly, test compounds were first dissolved in DMSO to a 10 mM stock concentration and further diluted in GR buffer (100 mM potassium phosphate (pH 7.4), 200 mM Na2MoO4, 1 mM EDTA, and 20% DMSO). Serial dilutions of the compounds were transferred to a Corning® black 384-well plate and Fluormone GS red™ was added, followed by GR Full Length (partially purified receptor in storage buffer). The plate was incubated for 4 h at RT in the dark and fluorescence polarization was measured with a CLARIOStar Microplate Reader (BMG Labtech, Ortenberg, Germany). Obtained values were normalized to the assay maximum (no ligand) and minimum control (10 µM dexamethasone), and relative percentages of polarization were determined. Dose-response curves were fitted enabling the calculations of IC50 values for each compound.

Molecules are shown by their SMILES.

In the case of `CC(C)=CCC[C@](C)(O[C@@H]1O[C@H](CO)[C@@H](O)[C@H](O)[C@H]1O)[C@H]1CC[C@]2(C)[C@@H]1[C@H](O)C[C@@H]1[C@@]3(C)CC[C@H](O)C(C)(C)[C@@H]3[C@@H](O[C@@H]3O[C@H](CO)[C@@H](O)[C@H](O)[C@H]3O)C[C@]12C` [Rg1, (3β,6α, 12β)-3,12-Dihydroxydammar-24-ene-6,20-diyl bis-β-D-glucopyranoside], under “fluorescence polarization, 4 h at RT”, the IC50 was 22 µM. For the same molecule, where the note is “vs beclomethasone”, the “relative GR binding affinity, times lower than beclomethasone” value is given as ~ 4,000 times.
